Measurements as given in patent publication US4794183A, “Certain tetrahydro-furan or pyran phosphate-ethylene or propylene ammonium derivatives” (Sankyo Company Limited, priority 1985, dated 1988).
pEC50: −log10 of the molar value. Read-outs that look alike come from different tables or passages of the source.

Assays:
[1] = test system: rabbits' platelet-rich plasma; assay: Platelet aggregating activity using rabbits' platelet-rich plasma (method of Born et al.); format: cell-based, rabbit; settings: Oryctolagus cuniculus, read-out: Platelet aggregating effect (EC50)
Procedure: The platelet aggregating activity of the compounds of the invention using rabbits' platelet-rich plasma was examined by the method of Born et al. [Born et al., J. Physiol., 162, 67-68 (1962)]. The EC50 values were calculated. As in Experiment 2, C16 PAF was used as a reference.

sarcoma 180 = assay: Anti-tumor effect, survival of mice transplanted intraperitoneally with sarcoma 180 ascites cells; format: in vivo, mice (ICR/Jcl strain, female); settings: for ILS (increase in lifespan) / No. surviving after 60 days: single dose, intraperitoneal; for ILS (increase in lifespan): (Tt-Tc) as percentage of Tc; for No. surviving after 60 days: survivors/number in test group; for mice kept alive at the end of 60 days: text summary of Table 8, dose not stated
Procedure: The test animals used were 8 week old female mice of the ICR/Jcl strain and were employed in groups of 5 mice for each test. Into each mouse were transplanted intraperitoneally 1×10^5 ascites cells of sarcoma 180. The day after transplantation, the test compound, dissolved in sterilized physiological saline, was administered in a single dose (in the amount shown in the following Table 8) intraperitoneally to the animals. A control group was given an intraperitoneal administration of sterilized physiological saline without any active compound. The results are reported in the following Table 8 as follows: Tt /Tc, where Tt is the mean survival time (in days) of the mice of a test group (i.e. to which one of the test compound was administered) and Tc is the mean survival time (in days) of the control group; ILS (%), i.e. the increase in lifespan, which is calculated as (Tt -Tc) expressed as a percentage of Tc; and number surviving after 60 days, in which the first number is the number of animals surviving, and the second number is the number in the test group.

[2] = rabbits' platelet-rich plasma, C16 PAF as reference

CCCCCCCCCCCCCCCCOCC(COP(=O)([O-])OCC[N+](C)(C)C)OC(C)=O (stereo not shown) [C16 PAF, reference compound]
pEC50 ([1]; Platelet): 8.05

CCCCCCCCCCCCCCCCOC[C@H]1OCCC[C@@H]1OP(=O)([O-])OCC[n+]1ccccc1 (relative stereo) [Example 6, dl-(trans-2-Hexadecyloxymethyltetrahydropyran-3-yl) 2-pyridinioethyl phosphate]
ILS (increase in lifespan) (sarcoma 180; 20 mg/kg): 155%
No. surviving after 60 days (sarcoma 180; 20 mg/kg): 0/5

CCCCCCCCCCCCCCCCOC[C@H]1OCC[C@@H]1OP(=O)([O-])OCC[N+](C)(C)C (relative stereo) [Example 5, dl-(trans-2-Hexadecyloxymethyltetrahydrofuran-3-yl) 2-(trimethylammonio)ethyl phosphate]
ILS (increase in lifespan) (sarcoma 180; 5 mg/kg): 157%
No. surviving after 60 days (sarcoma 180; 5 mg/kg): 2/5
mice kept alive at the end of 60 days (sarcoma 180): 2 of the 5
pEC50 [1, 2]: < 4.00

CCCCCCCCCCCCCCCCOC[C@H]1OCCC[C@@H]1OP(=O)([O-])OCC[N+](C)(C)C (relative stereo) [Example 1, dl-(trans-2-Hexadecyloxymethyltetrahydropyran-3-yl) 2-(trimethylammonio)ethyl phosphate]
ILS (increase in lifespan) (sarcoma 180; 5 mg/kg): 169%
No. surviving after 60 days (sarcoma 180; 5 mg/kg): 2/5
ILS (increase in lifespan) (sarcoma 180; 10 mg/kg): 136%
No. surviving after 60 days (sarcoma 180; 10 mg/kg): 1/5
mice kept alive at the end of 60 days (sarcoma 180): 2 of the 5
pEC50 [1, 2]: < 4.00

CCCCCCCCCCCCCCCCO[C@@H]1CCCO[C@H]1COP(=O)([O-])OCC[N+](C)(C)C (relative stereo) [Example 3, dl-(trans-3-Hexadecyloxytetrahydropyran-2-yl)methyl 2-(trimethylammonio)ethyl phosphate]
ILS (increase in lifespan) (sarcoma 180; 10 mg/kg): 127%
No. surviving after 60 days (sarcoma 180; 10 mg/kg): 1/5
pEC50 [1, 2]: < 3.40
